{
  "source": "patent US7674826B2",
  "about": "“Use of a nutraceutical compositions in animal feed” (DSM IP Assets B.V., priority 2006, dated 2010)",
  "key": {"growing-fattening pig [1]": {"tested_on": "growing-fattening pig", "assay": "Bone resistance: maximal breaking force of metacarpal diaphysis sections under compression, after long-term feeding", "assay_type": "in vivo", "details": "for Resistance (Newton at the breaking point), right metacarpals: mean ± SD", "description": "The term “bone resistance” as used herein denotes the maximal force in measured in Newton (N) necessary to break the bone determined by a compression machine.\n(§1) Environment humidity percentage throughout the experiment was 50%. […] Both diets were in mash form.\n(§2) All the diets were given in a mash form.\n(§3) At the end of the observation all the animals were slaughtered after electronarcosis for the determination of the bone resistance and mineralization. The collected bones were the right internal and external metacarpal. Samples were prepared from each of the collected bones immediately after slaughter. After careful removal of the soft tissue, a diaphysis section was obtained by sawing each bone. The obtained sections of about 3.5-cm long were immediately subjected to compression in order to determine the force in Newton necessary to break them (maximal-breaking force at the fracture point). The measurements were performed with a LR10K compression machine, using a XLC/10K/A1 force captor and a compression device TH23-196/AL (Lloyd Instruments, Fareham, UK). The broken bones were then dried in a drying oven at 105° C. during 24 hours and the dry matter (DM) was used for the determination of ash content, which was measured after 48 h incineration at 550° C. in a muffle furnace.\n(§4) Statistical treatment of the results involved the calculation of the mean and of the standard deviation as well as a two-factor hierarchical analysis of variance. The mathematical model was: Yijk=μ+Ai+Bij+Zijk, where μ is the mean, Ai is the diet effect, Bij is the combined effect of the diet and animal or pen and Zijk is the residual term. The analysis of variance was followed by a Duncan multiple range test when a significant Ai effect without Bij effect was observed (Statistical methods, 8th edition, Iowa University Press, Ames, Snedecor and Cochran, 1989). These calculations were performed using the Statistical Analysis System (SAS, 1990)."}, "pigs": {"tested_on": "pigs", "details": "diets with 0.5% or 1% benzoic acid, 32 + 91 days; statement covers all animals", "experimental": "Room temperature was initially 27° C. and was lowered weekly by about 2° C. until 21-22° C."}, "growing-fattening pig [2]": {"tested_on": "growing-fattening pig", "assay": "Bone mineralization: ash content of dried metacarpal bone after incineration, after long-term feeding", "assay_type": "in vivo", "details": "for Mineralization (% of ash in DM), right metacarpals: mean ± SD of 32 measurements", "experimental": "The term “bone mineralization” as used herein denotes the percentage of ash after incineration of the bone compared to the dried bone matter (DM). Dry matter is defined as the weight of the bone sample after 24 hour in a drying oven compared to the initial weight of the sample.\nas §1, §2, §3, §4"}, "[3]": {"details": "group B2: 0% 32 days, then 1% benzoic acid 91 days"}, "[4]": {"details": "group C2: 0.5% 32 days, then 0.5% benzoic acid 91 days"}, "[5]": {"details": "group D2: 0.5% 32 days, then 1% benzoic acid 91 days"}},
  "data": [
    {"smiles": "O=C(O)c1ccccc1", "note": "[benzoic acid]", "values": [
      {"measurement": "Bone resistance versus controls (in words)", "setting": "growing-fattening pig [1]; all the supplemented groups (B2, C2, D2)", "result": "significantly increased"},
      {"measurement": "Resistance (Newton at the breaking point), right metacarpals", "setting": "growing-fattening pig [1]; group B2: 0% benzoic acid in diet 32 days, then 1% for 91 days", "result": "625 ± 163^(2)bd Newton"},
      {"measurement": "Resistance (Newton at the breaking point), right metacarpals", "setting": "growing-fattening pig [1]; group C2: 0.5% benzoic acid in diet 32 days, then 0.5% for 91 days", "result": "621 ± 172^(2)d Newton"},
      {"measurement": "Resistance (Newton at the breaking point), right metacarpals", "setting": "growing-fattening pig [1]; group D2: 0.5% benzoic acid in diet 32 days, then 1% for 91 days", "result": "597 ± 192^(2)d Newton"},
      {"measurement": "Natural mortality during the experiment", "setting": "pigs", "result": "no natural mortality was observed"},
      {"measurement": "Symptoms of illness during the experiment", "setting": "pigs", "result": "did not present any symptoms of illness"},
      {"measurement": "Mineralization relative to controls (A2 = 100)", "setting": "growing-fattening pig [2]; [3]", "result": "(102)"},
      {"measurement": "Mineralization (% of ash in DM), right metacarpals", "setting": "growing-fattening pig [2]; [3]", "result": "60.26 ± 1.31^(1)d % of ash in DM"},
      {"measurement": "Ash content of the bones versus controls (in words)", "setting": "growing-fattening pig [2]; group C2 (0.5% benzoic acid throughout), P<0.07", "result": "numerically higher"},
      {"measurement": "Mineralization relative to controls (A2 = 100)", "setting": "growing-fattening pig [2]; [4]", "result": "(102)"},
      {"measurement": "Mineralization (% of ash in DM), right metacarpals", "setting": "growing-fattening pig [2]; [4]", "result": "60.06 ± 1.33^(1)cd* % of ash in DM"},
      {"measurement": "Mineralization relative to controls (A2 = 100)", "setting": "growing-fattening pig [2]; [5]", "result": "(102)"},
      {"measurement": "Mineralization (% of ash in DM), right metacarpals", "setting": "growing-fattening pig [2]; [5]", "result": "60.14 ± 1.09^(1)d % of ash in DM"},
      {"measurement": "Ash content of the bones versus controls (in words)", "setting": "growing-fattening pig [2]; groups B2 and D2 (1% benzoic acid during 91 days)", "result": "significantly higher"}
    ]}
  ]
}
